Results as given in patent publication US10870638B2, “Pyridazinone compound or its salt, and herbicide containing it” (ISHIHARA SANGYO KAISHA, LTD., priority 2016, dated 2020).

Assays:
Format in all cases: in vivo
Conditions in all cases: active ingredient amount 31 g/ha, 14th day after application
[1] = test system: rice (Oryza sativa L.); assay: Test Example 1: foliar treatment, growth inhibition rate on 14th day
In short: (§1)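 Growth inhibition rates (%) come from visual observation on the 14th day following a single foliar application. Soybean was sprayed at the primary leaf stage, rice at 0.2–2.7 leaves, wild oat at 0.4–1.2, green foxtail at 0.5–3.2.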

[2] = test system: redroot pigweed (Amaranthus retroflexus L.); assay: as above
In short: (§2)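 Visual 0–100% inhibition scoring (100 = complete kill) at 14 days after foliar treatment of soil-grown seedlings at species-specific leaf stages, with the compound sprayed as a wettable powder or emulsifiable concentrate dilution.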

[3] = test system: soybean (Glycine max Merr.); assay: as above
In short: as §1

[4] = test system: crabgrass (Digitaria sanquinalis L.); assay: as above
In short: as §2

[5] = test system: italian ryegrass (Lolium multiflorum Lam.); assay: as above
In short: as §2

[6] = test system: barnyardgrass (Echinochloa crus-qalli L.); assay: as above
In short: as §2

[7] = test system: green foxtail (Setaria viridis L.); assay: as above
In short: as §1

[8] = test system: wild oat (Avena fatua L.); assay: as above
In short: as §1

[9] = test system: corn (Zea mays L.); assay: as above
In short: as §2

[10] = test system: wheat (Triticum aestivum L.); assay: as above
In short: as §2

[11] = test system: rice (Oryza sativa L.); assay: Test Example 2: soil application on the day after sowing, growth inhibition rate on 14th day
In short: (§3)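 Pre-emergence soil spray, day after sowing; WP or EC formulations diluted to 1,000 L/ha water at set a.i. rates. Visual growth inhibition %, 0 = untreated, 100 = complete kill, read at day 14.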

[12] = test system: redroot pigweed (Amaranthus retroflexus L.); assay: as above
In short: as §3

[13] = test system: prickly sida (Sida spinosa L.); assay: as above
In short: as §3

[14] = test system: soybean (Glycine max Merr.); assay: as above
In short: as §3

[15] = test system: barnyardgrass (Echinochloa crus-qalli L.); assay: as above
In short: as §3

[16] = test system: velvetleaf (Abutilon theophrasti MEDIC.); assay: as above
In short: as §3

[17] = test system: crabgrass (Digitaris sanquinalis L.); assay: as above
In short: as §3

[18] = test system: green foxtail (Setaria viridis L.); assay: as above
In short: as §3

[19] = test system: corn (Zea mays L.); assay: as above
In short: as §3

[20] = test system: wheat (Triticum aestivum L.); assay: as above
In short: as §3

[21] = visual, 0 = non-treated, 100 = complete kill

| Structure (SMILES) | Growth inhibition rate (%) Rice [1] | Growth inhibition rate (%) Redroot pigweed [2] | Growth inhibition rate (%) Soybean [3] | Growth inhibition rate (%) Crabgrass [4] | Growth inhibition rate (%) Italian ryegrass [5] | Growth inhibition rate (%) Barnyardgrass [6] | Growth inhibition rate (%) Green foxtail [7] | Growth inhibition rate (%) Wild oat [8] | Growth inhibition rate (%) Corn [9] | Growth inhibition rate (%) Wheat [10] | Growth inhibition rate (%) Rice [11] | Growth inhibition rate (%) Redroot pigweed [12] | Growth inhibition rate (%) Prickly sida [13] | Growth inhibition rate (%) Soybean [14] | Growth inhibition rate (%) Barnyardgrass [15] | Growth inhibition rate (%) Velvetleaf [16] | Growth inhibition rate (%) Crabgrass [17] | Growth inhibition rate (%) Green foxtail [18] | Growth inhibition rate (%) Corn [19] | Growth inhibition rate (%) Wheat [20] | other results |
| --- | --- | --- | --- | --- | --- | --- | --- | --- | --- | --- | --- | --- | --- | --- | --- | --- | --- | --- | --- | --- | --- |
| CCc1ccc(Oc2ncc(C(F)(F)F)cc2Cl)cc1-c1c(O)c(C)nn(C)c1=O [1-3] | 75% | 0% | 15% | 99% | 98% | 100% | 100% | 98% | 99% | 15% | 80% | 0% | 0% | 0% | 100% | 0% | 100% | 100% | 90% | 35% | – |
| CSCCC(=O)Oc1c(C)nn(C)c(=O)c1-c1cc(Oc2cnc3cc(Cl)ccc3n2)ccc1C [Compound 3-50] | – | – | – | – | – | – | – | – | – | – | 0% | 0% | 0% | 0% | 99% | 0% | 80% | 98% | 0% | 0% | Growth inhibition rate (%) Rice [1, 21]: 60%; Growth inhibition rate (%) Redroot pigweed [2, 21]: 0%; Growth inhibition rate (%) Soybean [3, 21]: 10%; Growth inhibition rate (%) Crabgrass [4, 21]: 98%; Growth inhibition rate (%) Italian ryegrass [5, 21]: 93%; Growth inhibition rate (%) Barnyardgrass [6, 21]: 100%; Growth inhibition rate (%) Green foxtail [7, 21]: 100%; Growth inhibition rate (%) Wild oat [8, 21]: 98%; Growth inhibition rate (%) Corn [9, 21]: 15%; Growth inhibition rate (%) Wheat [10, 21]: 99% |
| Cc1ccc(Oc2ncc(C(F)(F)F)cc2C(F)(F)F)cc1-c1c(O)c(C)nn(C)c1=O [Compound 2-84] | 0% | 0% | 0% | 100% | 93% | 99% | 100% | 99% | 90% | 0% | 60% | 0% | 0% | 0% | 100% | 0% | 100% | 100% | 0% | 0% | – |
| CC(=O)Oc1cnn(C)c(=O)c1-c1cc(Oc2ncc(C(F)(F)F)cc2Cl)ccc1C [1-171] | 85% | 0% | 0% | 100% | 100% | 100% | 100% | 100% | 100% | 83% | 0% | 0% | 0% | 0% | 100% | 0% | 100% | 100% | 0% | 0% | – |
| Cc1ccc(Oc2ncc(Br)cc2Cl)cc1-c1c(O)c(C)nn(C)c1=O [Compound 2-101] | 0% | 0% | 20% | 85% | 50% | 75% | 88% | 70% | 80% | 0% | 0% | 0% | 0% | 0% | 78% | 0% | 93% | 95% | 20% | 10% | – |
| CC(=O)Oc1cnn(C(C)C)c(=O)c1-c1cc(Oc2nc3ccc(Cl)cc3o2)ccc1C [Compound 2-172] | 30% | 0% | 40% | 98% | 35% | 100% | 99% | 40% | 98% | 10% | 0% | 0% | 0% | 0% | 60% | 0% | 30% | 20% | 0% | 0% | – |
| Cc1ccc(Oc2cc(C(F)(F)F)c(C(F)(F)F)cn2)cc1-c1c(O)c(C)nn(C)c1=O [Compound 2-93] | 0% | 20% | 10% | 99% | 88% | 100% | 100% | 30% | 95% | 0% | 0% | 0% | 0% | 0% | 100% | 0% | 99% | 99% | 0% | 0% | – |
| Cc1ccc(Oc2nc3ccc(Cl)cc3o2)cc1-c1c(O)cnn(C)c1=O [Compound 2-163] | 35% | 0% | 35% | 95% | 88% | 100% | 100% | 75% | 80% | 10% | 20% | 0% | 0% | 0% | 98% | 0% | 98% | 99% | 15% | 20% | – |
| CCc1ccc(Oc2ncc(C(F)(F)F)cc2Cl)cc1-c1c(O)cnn(C)c1=O [1-95] | 80% | 0% | 0% | 100% | 95% | 100% | 100% | 99% | 100% | 45% | 50% | 0% | 0% | 0% | 100% | 0% | 100% | 100% | 80% | 0% | – |
